Test results published in patent publication US9845330B2, “6-nitro-2,3-dihydroimidazo[2,1-b]oxazoles and a process for the preparation thereof” (priority 2013, dated 2017).
Values after ≈ are worked out from the molar mass of the structure shown. Read-outs that look alike come from different tables or passages of the source.

How the values were obtained:
[1] = tested on: M. tuberculosis H37Rv (ATCC 27294); experiment: MIC by broth dilution method, M. tuberculosis H37Rv; format: cell-based; settings: Mycobacterium tuberculosis
[2] = Cytotoxicity assay (MTT) in macrophage J774 cells; format: cell-based; settings: mouse, J774 macrophage cells; also called safety index
How it was run: (§1)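 J774 cells seeded at 3×10^4 cells/cm^2 in RPMI with FCS reduced to 5%, then exposed to compounds at 40 μg/ml for 24 hrs. MTT reduction read at 450 nm; percentage cytotoxicity calculated relative to untreated cells.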

[3] = tested on: macrophage J774 cells line; experiment: Cytotoxicity assay (MTT) in macrophage J774 cells; format: cell-based; settings: J774 cells, 24 hrs, MTT
How it was run: as §1

[4] = In vivo pharmacokinetics, oral, mice; design: species or system Balb/c mice; Ka: unit not given here; settings: 5 mg/kg oral, plasma; for Tmax: read-out: Tmax
Description: Compounds were administered orally to mice (Balb/c mice) at a dose of 5 mg/kg as a suspension in 0.5% CMC and Tween 80. Samples were derived from plasma at different time points i.e. 0.16 h, 0.5 h, 1 h, 2 h, 4 h, 6 h, 8 h and 24 h, which were then analysed by LC-MS/MS to generate the required pharmacokinetic parameters.

M. tuberculosis H37Rv = experiment: Combination studies, checkerboard method; format: cell-based, Mycobacterium tuberculosis; settings: for FIC (MIC combination/MIC alone): FIC B
Description: The efficacy of compounds IA25 and IIA3 (conc range 4 μg/ml to 0.007 μg/ml) in combination with currently used anti-TB drugs such as rifampicin, isoniazid and ethambutol (each drug tested at conc range 4 μg/ml to […]), wherein the ratio of drugs was ranging between 0.1% to 50%, was determined in vitro using checkerboard method. The checkerboard procedure was performed based on the MIC values by the broth microdilution method. The checkerboard method was performed in 96 well U bottom microtitre plates. 100 microliters of 4× concentration of drug was added to first column of the plate. 50 microliters from first column was transferred to second column and was serially diluted in horizontal manner upto column 10 of the plate. Seven dilutions of 4× concentration of compound were prepared in eppendorfs and fifty microliters of each concentration was added vertically starting from eleventh column of row eight to row second of the plate. First row of the plate served as drug control. 100 microliters of 1:10 diluted of 1 Mc Farland inoculum was added to each well of the plate. Plates were then incubated at 37° C. for 14 days. MIC of drug alone and in presence of compound and vice versa was observed visually. […] The FIC index value for each concentration of two-drug combination was calculated and the minimum value was adopted.

[5] = 504 h, read-out: MIC M. tb H37Rv, broth dilution, 3 weeks
[6] = read-out: MIC value, text summary: sensitive H37Rv as well as MDR and XDR strains of M. tuberculosis

SMILES | MIC [1, 5] [µg/mL] | MIC [1, 6] [µg/mL] | selectivity ratio at 24 h, 40 μg/ml [2] | Cytotoxicity [3] [µg/mL] | CLB [4] [mL/min/kg] | Ka [4] | Vdarea [4] [L/kg] | t1/2absorption [4] [h] | Cmax ([4]; Balb/c, mouse, po, 5 mg/kg) [nM] | AUC ([4]; Balb/c, mouse) [µM·h] | Tmax ([4]; Balb/c, mouse) [h] | other results
C[C@]1(COc2ccc(-c3cc(COc4ccc(OC(F)(F)F)cc4)on3)cc2)Cn2cc([N+](=O)[O-])nc2O1 [IC13, (R)-2-{4-[5-(4-trifluoromethoxyphenoxymethyl)isoxazol-3-yl]phenoxymethyl}-2,3-dihydro-2-methyl-6-nitroimidazo[2,1-b]oxazole] | 0.12 (≈ 0.225 µM) | < 1 | > 10 | >40 | 0.055 | 1.21 | 0.13 | 0.57 | 2530 | 33.7 | 2 | –
C[C@]1(COc2ccc(-c3cc(COc4ccc(F)cc4)on3)cc2)Cn2cc([N+](=O)[O-])nc2O1 [IC14, (R)-2-{4-[5-(4-fluorophenoxymethyl)isoxazol-3-yl]phenoxymethyl}-2,3-dihydro-2-methyl-6-nitroimidazo[2,1-b]oxazole] | 0.06 (≈ 0.129 µM) | < 1 | > 10 | >40 | 3.37 | 1.056 | 1.54 | 0.656 | 353 | 1.55 | 2 | –
C[C@]1(COc2ccc(-n3cc(COc4ccc(OC(F)(F)F)cc4)nn3)cc2)Cn2cc([N+](=O)[O-])nc2O1 [IA25] | – | – | > 10 | >40 | 0.12 | 1.71 | 0.36 | 0.41 | 1020 | 14 | 2 | MIC ([1]; 504 h, broth dilution, 3 weeks, read-out: MIC M. tb H37Rv): 0.12 µg/mL (≈ 0.225 µM); Cmax [4]: 1020 nM; FIC (MIC combination/MIC alone) (M. tuberculosis H37Rv; compound in combination with Ethambutol): FIC B = 0.5; FIC (MIC combination/MIC alone) (M. tuberculosis H37Rv; compound in combination with INH): FIC B = 0.25; FIC (MIC combination/MIC alone) (M. tuberculosis H37Rv; compound in combination with Rifampicin): FIC B = 0.5; MIC alone (M. tuberculosis H37Rv; checkerboard, alone): 0.12 µg/mL; MIC with Ethambutol (M. tuberculosis H37Rv; checkerboard, in combination with Ethambutol): 0.06 µg/mL; MIC with INH (M. tuberculosis H37Rv; checkerboard, in combination with INH): 0.03 µg/mL; MIC with Rifampicin (M. tuberculosis H37Rv; checkerboard, in combination with Rifampicin): 0.06 µg/mL; FIC Index (FIC A + FIC B) (M. tuberculosis H37Rv; combination with Ethambutol): 0.75; FIC Index (FIC A + FIC B) (M. tuberculosis H37Rv; combination with INH): 0.5; Observations (M. tuberculosis H37Rv; combination with INH (isoniazid)): synergistic effect; FIC Index (FIC A + FIC B) (M. tuberculosis H37Rv; combination with Rifampicin): 0.75
